Measurements published in patent US6555574B1, “4-oxybenzopyran derivative” (Nissan Chemical Industries, Ltd., priority 1999, dated 2003).

For `COc1ccc(CC(=O)Nc2cc3c(cc2[N+](=O)[O-])OC(C)(C)[C@H](O)[C@H]3OCCc2ccccc2)cc1` [Synthesis example 6, Trans-3,4-dihydro-2,2-dimethyl-6-(4-methoxyphenyl)acetylamino-7-nitro-4-(2-phenylethoxy)-2H-1-benzoypyran-3-ol], the melting point was 125.2 to 125.5 °C. In the case of `COc1ccc(CC(=O)Nc2cc3c(cc2[N+](=O)[O-])OC(C)(C)[C@H](O)[C@H]3OCc2ccccc2)cc1` [Synthesis example 8], the melting point is reported as 117.8 to 119.1 °C. `CCCO[C@H]1c2cc(NC(=O)Cc3ccc(OC)cc3)c([N+](=O)[O-])cc2OC(C)(C)[C@@H]1O` (relative stereo) [Synthesis example 4, (3R*, 4S*)-3,4-dihydro-2,2-dimethyl-4-propoxy-6-(4-methoxyphenylacetylamino)-7-nitro-2H-1-benzopyran-3-ol] showed a melting point of 115 to 116 °C. With `COc1ccc(CC(=O)Nc2cc3c(cc2[N+](=O)[O-])OC(C)(C)[C@H](O)[C@H]3Oc2ccccc2)cc1` (relative stereo) [Synthesis example 7, Trans-3,4-dihydro-2,2-dimethyl-6-(4-methoxyphenyl)acetylamino-7-nitro-4-phenyloxy-2H-1-benzopyran-3-ol] the melting point was 178 to 178.6 °C.
